Assay results: ChEMBL document CHEMBL4196099, “Factor XIa Inhibitors as New Anticoagulants” (J Med Chem, 2018)
Each block holds one compound with its values, some of them ahead of it.

What was measured:
Coagulation factor XI [1] = molecular target: T1, Coagulation factor XI (Homo sapiens, UniProt P03951); assay: Inhibition of human factor 11a incubated for 60 mins by Cheng-Prusoff equation analysis
Coagulation factor XI [2] = molecular target: T1, Coagulation factor XI; assay: Inhibition of human factor 11a assessed as reduction in para-nitroanilide releasee using pyroGlu-Pro-Arg-pNA.HCl substrate by chromogenic assay
Oryctolagus cuniculus [3] = organism: Oryctolagus cuniculus; assay: Antithrombotic activity in rabbit model of venous thrombosis; assay type: functional
Tryptase = Tryptase (Homo sapiens, UniProt Q9BZJ3+Q15661+Q9NRR2); assay: Inhibition of human lung tryptase using Z-glypro-arg-AMC incubated for 3 mins by spectrophotometry; assay type: protein assay
Trypsin = Trypsin (Homo sapiens, UniProt P07477+P07478+P35030); assay: Inhibition of trypsin (unknown origin) using Chromozyme-TRY substrate incubated for 3 mins by spectrophotometry; assay type: protein assay
Oryctolagus cuniculus [4] = organism: Oryctolagus cuniculus; assay: Antithrombotic activity in rabbit model of arteriovenous-shunt thrombosis; assay type: functional
Oryctolagus cuniculus [5] = organism: Oryctolagus cuniculus; assay: Antithrombotic activity in rabbit model of electrolytic-mediated carotid arterial thrombosis; assay type: functional
[6] = Terminal half life in healthy human following administration of 2 hrs and 5 day continuous iv infusion; assay type: ADME, organism-based; settings: in vivo, read-out: beta t1/2

T1 sequence (P03951 19-387 limits assumed): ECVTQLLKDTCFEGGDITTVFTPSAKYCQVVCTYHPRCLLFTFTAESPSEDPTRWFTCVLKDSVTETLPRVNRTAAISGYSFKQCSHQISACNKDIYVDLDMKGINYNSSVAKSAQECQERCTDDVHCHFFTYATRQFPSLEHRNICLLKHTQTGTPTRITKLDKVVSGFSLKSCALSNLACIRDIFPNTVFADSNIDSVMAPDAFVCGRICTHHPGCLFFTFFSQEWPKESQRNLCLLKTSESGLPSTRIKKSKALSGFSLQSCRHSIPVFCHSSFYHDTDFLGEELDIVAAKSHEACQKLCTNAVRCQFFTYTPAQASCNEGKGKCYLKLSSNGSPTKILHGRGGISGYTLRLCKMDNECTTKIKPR
T1 sequence (P03951 388-625 limits assumed): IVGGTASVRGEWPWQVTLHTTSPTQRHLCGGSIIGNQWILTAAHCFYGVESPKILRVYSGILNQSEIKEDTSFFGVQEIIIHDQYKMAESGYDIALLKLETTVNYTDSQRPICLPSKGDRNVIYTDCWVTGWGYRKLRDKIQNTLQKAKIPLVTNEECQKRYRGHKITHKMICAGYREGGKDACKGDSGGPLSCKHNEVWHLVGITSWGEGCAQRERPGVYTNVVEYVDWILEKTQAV

Ki (Coagulation factor XI [1]): 0.0003 µM
SMILES: COC(=O)Nc1ccc2c(c1)NC(=O)CCCC[C@H](NC(=O)[C@H]1CC[C@H](CN)CC1)c1nc-2c[nH]1

Kd (Coagulation factor XI [2]): 1400 µM
SMILES: CNC(=O)[C@H](Cc1ccccc1)NC(=O)c1ccc2[nH]c(=O)cc(O)c2c1

IC50 (Tryptase): 0.005 µM | IC50 (Trypsin): 0.05 µM
SMILES: CC(C)(C)NC(=O)N1CCN(C(=O)N2C(=O)[C@H](CCCN=C(N)N)[C@H]2C(=O)O)CC1
ED50 (Oryctolagus cuniculus [3]): 0.7 mg/kg/h | ED50 (Oryctolagus cuniculus [4]): 0.4 mg/kg/h | ED50 (Oryctolagus cuniculus [5]): 1.5 mg/kg/h

half-life [6]: 6 to 9 h
SMILES: CN1CCN(c2cccc3c2CCN(C(=O)/C=C/c2c(-n4cnnn4)ccc(Cl)c2F)[C@@H]3C(=O)Nc2ccc(C(=O)O)cc2)C(=O)C1 [BMS-962212]
